ChEMBL document CHEMBL1201862, “PubChem BioAssay data set” (2004)
Calls of active or inactive are those of the source.

Columns and labels:
[1] = target: Endoplasmic reticulum aminopeptidase 1 (Homo sapiens, UniProt Q9NZ08); assay: inhibition of human ERAP1 enzyme activity – biochemical, cherry-pick, set 2, plate reader, dose response (AID 743314)
Insulin-degrading enzyme [2] = target: T1, Insulin-degrading enzyme (Homo sapiens, UniProt P14735); assay: cellular IDE activation of Abeta substrate cleavage – fluorescence polarization, HEK cells, dose response (AID 588439); assay type: functional, cell-based
T1 sequence (P14735 whole entry): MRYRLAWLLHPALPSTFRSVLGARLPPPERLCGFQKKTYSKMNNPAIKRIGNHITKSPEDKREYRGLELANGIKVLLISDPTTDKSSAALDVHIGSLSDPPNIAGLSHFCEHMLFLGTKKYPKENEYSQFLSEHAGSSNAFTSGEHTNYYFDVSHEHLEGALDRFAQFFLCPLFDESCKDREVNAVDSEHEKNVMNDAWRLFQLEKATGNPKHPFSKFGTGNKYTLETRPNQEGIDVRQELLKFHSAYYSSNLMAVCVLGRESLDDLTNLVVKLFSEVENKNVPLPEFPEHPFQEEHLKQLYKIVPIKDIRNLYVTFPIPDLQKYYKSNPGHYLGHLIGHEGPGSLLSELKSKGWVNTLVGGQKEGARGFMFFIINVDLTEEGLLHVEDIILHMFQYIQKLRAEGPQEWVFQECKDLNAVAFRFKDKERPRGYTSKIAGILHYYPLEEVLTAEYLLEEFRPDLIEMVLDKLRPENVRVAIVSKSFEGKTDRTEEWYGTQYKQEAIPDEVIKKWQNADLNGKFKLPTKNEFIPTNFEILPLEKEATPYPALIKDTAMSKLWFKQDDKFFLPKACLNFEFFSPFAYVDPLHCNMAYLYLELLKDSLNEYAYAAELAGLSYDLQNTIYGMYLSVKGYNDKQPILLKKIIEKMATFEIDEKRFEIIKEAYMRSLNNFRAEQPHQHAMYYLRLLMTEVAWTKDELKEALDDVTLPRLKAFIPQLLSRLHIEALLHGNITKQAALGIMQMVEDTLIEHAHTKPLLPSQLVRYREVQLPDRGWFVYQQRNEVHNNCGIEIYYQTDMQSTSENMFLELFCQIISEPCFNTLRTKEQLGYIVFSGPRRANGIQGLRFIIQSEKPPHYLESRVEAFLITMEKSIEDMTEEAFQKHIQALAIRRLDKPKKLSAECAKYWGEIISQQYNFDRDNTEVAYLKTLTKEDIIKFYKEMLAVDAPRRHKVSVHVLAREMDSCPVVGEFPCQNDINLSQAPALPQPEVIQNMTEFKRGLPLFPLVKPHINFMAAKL

HEK293 [3] = assay: membrane integrity loss in HEK cells – cell-based, fluorescence, cytotoxicity control for IDE activator project, dose response (AID 588440); assay type: functional; settings: Homo sapiens;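 also: cytotoxicity by LDH release measuring loss of membrane integrity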
Insulin-degrading enzyme [4] = target: T1, Insulin-degrading enzyme; assay: recombinant IDE activation, cell-free – biochemical, fluorescence polarization, counter-screen for IDE activator project, dose response (AID 588681)
[5] = general mammalian cell viability loss – inhibitor set, cherry-pick, set 2, cytotoxicity control for miR-122 modulator project, dose response (AID 720697); assay type: functional, cell-based
[6] = blockers of HIV-1 envelope-mediated cell-cell fusion – cherry-pick, dose response (AID 652057); assay type: functional, cell-based
[7] = viability loss in CEM21 cells – cell-based, CellTiter-Glo luminescence, cherry-picked, cytotoxicity control for viral fusion inhibitor project, dose response (AID 652042); assay type: functional;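 also: potency for signal decrease meaning cytotoxicity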
HEK293 [8] = assay: optical interference in Abeta FP readout, dose response, artefact control for IDE activator project, biochemical, fluorescence polarization (AID 588442); assay type: functional, cell-based; settings: Homo sapiens
[9] = HIV-1 AD8 envelope cell-cell fusion blockers – cherry-pick, dose response (AID 652062); assay type: functional, cell-based;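 also: luciferase signal from cell-cell fusion driven by HIV-1 clade B AD8 Env; potency is for inhibitors of fusion seen as a drop in luminescence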
[10] = activation of miR-122 Renilla sensor silencing – cell-based, Huh7 psiCHECK-miR122, Renilla luciferase, cherry-picked, dose response (AID 651956); assay type: functional;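 also: huh7 hepatoma cells stably carrying a psiCHECK-2 miR-122 sensor plasmid; renilla luciferase signal reporting endogenous miR-122 activity after 48 h compound exposure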
[11] = general mammalian cell viability loss – activator set, cherry-pick, cytotoxicity control for miR-122 modulator project, dose response (AID 720690); assay type: functional, cell-based;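 also: HEK293T human cells scored for general mammalian cytotoxicity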
[12] = target: T2, Ubiquitin-conjugating enzyme E2 N (Homo sapiens, UniProt P61088); assay type: functional;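 also: Dose-response confirmation in a TR-FRET assay detecting UBC13-driven polyubiquitin chain formation, inhibition measured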
T2 sequence (P61088 whole entry): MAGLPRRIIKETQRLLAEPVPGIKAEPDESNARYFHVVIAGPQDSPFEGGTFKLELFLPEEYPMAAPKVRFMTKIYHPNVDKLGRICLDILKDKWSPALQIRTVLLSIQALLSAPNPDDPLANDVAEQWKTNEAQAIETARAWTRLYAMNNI

[13] = blockers of HIV-1 ZM109 envelope-driven cell-cell fusion – HeLa effector, CEM target cells, luciferase, cherry-pick, dose response (AID 652058); assay type: functional, cell-based;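 also: luciferase signal from HIV-1 Env mediated cell-cell fusion of effector and target cells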
[14] = target: T3, Apoptotic protease-activating factor 1 (Homo sapiens, UniProt O14727); assay type: functional
T3 sequence (O14727 whole entry): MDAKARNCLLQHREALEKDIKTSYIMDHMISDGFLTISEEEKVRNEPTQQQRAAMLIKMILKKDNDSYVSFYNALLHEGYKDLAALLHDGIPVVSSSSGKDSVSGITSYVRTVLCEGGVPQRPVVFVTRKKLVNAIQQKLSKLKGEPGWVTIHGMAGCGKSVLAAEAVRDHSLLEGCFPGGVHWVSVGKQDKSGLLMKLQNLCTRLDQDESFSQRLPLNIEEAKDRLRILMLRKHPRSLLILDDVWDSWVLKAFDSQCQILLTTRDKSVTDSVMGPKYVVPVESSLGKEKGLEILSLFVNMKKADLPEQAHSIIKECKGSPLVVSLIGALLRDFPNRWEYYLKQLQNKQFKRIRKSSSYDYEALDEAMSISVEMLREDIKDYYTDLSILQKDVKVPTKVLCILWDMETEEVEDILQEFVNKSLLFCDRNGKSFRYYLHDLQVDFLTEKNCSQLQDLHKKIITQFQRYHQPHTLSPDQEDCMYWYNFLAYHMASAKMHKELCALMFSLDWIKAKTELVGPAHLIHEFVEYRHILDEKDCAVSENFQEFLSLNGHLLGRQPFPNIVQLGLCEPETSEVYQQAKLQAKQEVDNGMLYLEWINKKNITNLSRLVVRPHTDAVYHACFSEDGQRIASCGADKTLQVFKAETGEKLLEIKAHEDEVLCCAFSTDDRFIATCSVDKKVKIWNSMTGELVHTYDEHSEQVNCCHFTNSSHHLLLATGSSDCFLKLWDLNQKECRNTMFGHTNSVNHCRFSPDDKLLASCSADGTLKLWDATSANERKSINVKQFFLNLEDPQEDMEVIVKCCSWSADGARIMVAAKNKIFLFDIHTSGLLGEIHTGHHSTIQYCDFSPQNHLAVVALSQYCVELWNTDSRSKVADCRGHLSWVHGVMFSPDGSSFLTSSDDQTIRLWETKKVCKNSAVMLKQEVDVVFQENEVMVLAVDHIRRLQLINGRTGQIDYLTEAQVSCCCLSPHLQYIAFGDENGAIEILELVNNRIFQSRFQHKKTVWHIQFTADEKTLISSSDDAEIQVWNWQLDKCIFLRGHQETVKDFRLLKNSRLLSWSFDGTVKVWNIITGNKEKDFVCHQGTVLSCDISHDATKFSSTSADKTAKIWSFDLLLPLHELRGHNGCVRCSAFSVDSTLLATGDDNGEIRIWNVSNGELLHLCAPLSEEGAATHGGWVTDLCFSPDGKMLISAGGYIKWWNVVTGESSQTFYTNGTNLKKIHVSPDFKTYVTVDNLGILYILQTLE

[15] = off-target signal loss in HeLa-CEM21 co-culture – HeLa F-luc CTL cells, cherry-picked, counter-screen for HIV-1 Env fusion inhibitor project, dose response (AID 652040); assay type: functional, cell-based;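 also: potency for signal decrease marking cytotoxic or nonspecific inhibition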
[16] = Mycobacterium tuberculosis BioA enzyme inhibitor Measured in Biochemical System Using Plate Reader - 2163-02_Inhibitor_Dose_DryPowder_Activity.

Sequence of Endoplasmic reticulum aminopeptidase 1 (Q9NZ08 whole entry): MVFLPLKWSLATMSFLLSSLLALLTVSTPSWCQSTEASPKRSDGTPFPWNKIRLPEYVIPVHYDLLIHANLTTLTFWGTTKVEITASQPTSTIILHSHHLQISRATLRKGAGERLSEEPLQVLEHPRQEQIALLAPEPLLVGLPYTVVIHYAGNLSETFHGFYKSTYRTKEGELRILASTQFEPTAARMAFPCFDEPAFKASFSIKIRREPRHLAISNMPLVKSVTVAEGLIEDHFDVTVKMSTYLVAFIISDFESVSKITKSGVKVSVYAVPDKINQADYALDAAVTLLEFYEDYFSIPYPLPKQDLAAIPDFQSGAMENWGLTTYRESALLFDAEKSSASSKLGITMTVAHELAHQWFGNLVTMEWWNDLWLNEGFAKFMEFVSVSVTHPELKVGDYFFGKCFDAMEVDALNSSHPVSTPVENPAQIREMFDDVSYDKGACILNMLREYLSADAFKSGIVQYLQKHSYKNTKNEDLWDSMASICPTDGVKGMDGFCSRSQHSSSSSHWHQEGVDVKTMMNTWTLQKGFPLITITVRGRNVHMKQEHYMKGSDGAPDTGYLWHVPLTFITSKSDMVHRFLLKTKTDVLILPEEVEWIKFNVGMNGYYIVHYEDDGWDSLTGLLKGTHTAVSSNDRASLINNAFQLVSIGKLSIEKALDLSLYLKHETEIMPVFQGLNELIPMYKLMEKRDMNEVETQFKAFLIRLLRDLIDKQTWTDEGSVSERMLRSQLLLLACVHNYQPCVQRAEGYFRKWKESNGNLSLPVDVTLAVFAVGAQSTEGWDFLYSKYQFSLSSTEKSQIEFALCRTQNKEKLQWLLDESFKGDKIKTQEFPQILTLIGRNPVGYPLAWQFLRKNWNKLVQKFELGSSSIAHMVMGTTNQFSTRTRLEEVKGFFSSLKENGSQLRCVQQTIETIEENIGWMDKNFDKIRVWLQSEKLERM

For `CCc1cc(=O)oc2c(CN3CCN(C)CC3)c(O)ccc12`, the AC50 [1] was 7.3 µM (active).

With `FC(F)(F)c1cc(CCN2CCNC[C@@H]2CC2CCCCC2)cc(C(F)(F)F)c1` the EC50 (Insulin-degrading enzyme [2]) was 17.6 µM (inactive), the IC50 (HEK293 [3]) was 9.68 µM (active) and the EC50 (Insulin-degrading enzyme [4]) was > 54.7 µM (inactive). For the same molecule, the AC50 [5] was 8.59 µM (active), the AC50 [6] was 7.14 µM (active) and the AC50 [7] was 7.74 µM (active). The EC50 (HEK293 [8]) was > 54.7 µM (inactive), the AC50 [9] was 17.6 µM (active) and the AC50 [10] was 23.8 µM (active). The AC50 [11] was 7.47 µM (active), the IC50 [12] was > 20 µM (inactive) and the AC50 [13] was 11.5 µM (active). The IC50 [14] was 62.5 µM (active) and the AC50 [15] was 11.2 µM (active).

For `Cc1cccc(/C=C(\CCC(=O)O)c2nc3ccccc3s2)c1`, the AC50 [16] was 14.5 µM (active).
